Measurements from patent US20250332266A1, “COMPOUNDS FOR THE DEGRADATION OF EGFR KINASE” (BeiGene Switzerland GmbH, priority 2022, published 2025).

How the values were obtained:
[1] = target: EGFR Del19/T790M/C797S (H1975-clone #28) (Homo sapiens, UniProt P00533, T790M/C797S, form not given); assay: EGFR degradation, HTRF total-EGFR assay, H1975-clone #28 (DTC); type: cell-based; conditions: H1975-clone #28 Del19/T790M/C797S, 16 h treatment
Procedure, shortened: (§1)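 H1975 clones with endogenous EGFR knocked out and homozygous exogenous EGFR mutants (#28 Del19/T790M/C797S; #25 L858R/T790M/C797S) treated 16 h at 37 °C, 8 doses, 5-fold from 10 μM, 0.2% DMSO. Total EGFR measured by HTRF on lysates, normalised to DMSO controls; DC50 and Dmax from curve fit.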

[2] = target: T1, EGFR L858R/T790M/C797S (H1975-clone #25) (Homo sapiens, UniProt P00533, C797S/L858R/T790M); assay: EGFR degradation, HTRF total-EGFR assay, H1975-clone #25 (LTC); type: cell-based; conditions: H1975-clone #25 L858R/T790M/C797S, 16 h treatment
T1 construct: expressed in transfected cells; host or cells: H1975 (clone #25), lentiviral transduction, endogenous EGFR knocked out
T1 sequence (P00533 25-1210 T790M/C797S/L858R): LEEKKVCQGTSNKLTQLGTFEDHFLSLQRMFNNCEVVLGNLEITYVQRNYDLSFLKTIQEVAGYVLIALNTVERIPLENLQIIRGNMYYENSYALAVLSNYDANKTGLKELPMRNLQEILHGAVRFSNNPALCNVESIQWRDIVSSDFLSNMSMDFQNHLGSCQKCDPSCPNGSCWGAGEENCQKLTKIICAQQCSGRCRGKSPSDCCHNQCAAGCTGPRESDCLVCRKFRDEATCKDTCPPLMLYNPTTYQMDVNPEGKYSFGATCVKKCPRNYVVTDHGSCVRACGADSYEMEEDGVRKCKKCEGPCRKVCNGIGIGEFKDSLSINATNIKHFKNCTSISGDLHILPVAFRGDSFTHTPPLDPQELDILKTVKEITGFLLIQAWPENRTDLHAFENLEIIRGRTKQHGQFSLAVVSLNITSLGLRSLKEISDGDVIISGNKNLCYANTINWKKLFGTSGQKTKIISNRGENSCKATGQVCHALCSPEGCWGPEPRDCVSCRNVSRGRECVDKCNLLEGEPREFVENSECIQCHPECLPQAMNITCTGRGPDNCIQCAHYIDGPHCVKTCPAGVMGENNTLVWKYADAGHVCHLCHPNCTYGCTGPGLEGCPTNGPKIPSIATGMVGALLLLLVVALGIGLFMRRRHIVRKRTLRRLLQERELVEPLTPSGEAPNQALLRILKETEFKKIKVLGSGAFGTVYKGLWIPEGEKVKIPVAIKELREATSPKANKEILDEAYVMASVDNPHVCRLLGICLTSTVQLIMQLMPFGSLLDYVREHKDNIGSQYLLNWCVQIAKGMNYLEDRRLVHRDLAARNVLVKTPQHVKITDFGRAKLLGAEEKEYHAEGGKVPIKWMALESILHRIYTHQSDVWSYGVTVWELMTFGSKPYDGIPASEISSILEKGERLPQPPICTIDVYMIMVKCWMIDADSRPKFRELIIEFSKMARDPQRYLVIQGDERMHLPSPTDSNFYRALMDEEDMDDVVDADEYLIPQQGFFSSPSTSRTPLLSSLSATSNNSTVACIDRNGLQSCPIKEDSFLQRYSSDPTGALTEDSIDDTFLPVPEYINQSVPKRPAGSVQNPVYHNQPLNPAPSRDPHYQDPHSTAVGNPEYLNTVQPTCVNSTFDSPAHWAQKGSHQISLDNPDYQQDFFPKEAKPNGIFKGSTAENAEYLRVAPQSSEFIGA
Procedure, shortened: as §1

Sequence of EGFR Del19/T790M/C797S (H1975-clone #28) (P00533 with tags, fused parts or gaps DEL746-750/T790M/C797S, form open): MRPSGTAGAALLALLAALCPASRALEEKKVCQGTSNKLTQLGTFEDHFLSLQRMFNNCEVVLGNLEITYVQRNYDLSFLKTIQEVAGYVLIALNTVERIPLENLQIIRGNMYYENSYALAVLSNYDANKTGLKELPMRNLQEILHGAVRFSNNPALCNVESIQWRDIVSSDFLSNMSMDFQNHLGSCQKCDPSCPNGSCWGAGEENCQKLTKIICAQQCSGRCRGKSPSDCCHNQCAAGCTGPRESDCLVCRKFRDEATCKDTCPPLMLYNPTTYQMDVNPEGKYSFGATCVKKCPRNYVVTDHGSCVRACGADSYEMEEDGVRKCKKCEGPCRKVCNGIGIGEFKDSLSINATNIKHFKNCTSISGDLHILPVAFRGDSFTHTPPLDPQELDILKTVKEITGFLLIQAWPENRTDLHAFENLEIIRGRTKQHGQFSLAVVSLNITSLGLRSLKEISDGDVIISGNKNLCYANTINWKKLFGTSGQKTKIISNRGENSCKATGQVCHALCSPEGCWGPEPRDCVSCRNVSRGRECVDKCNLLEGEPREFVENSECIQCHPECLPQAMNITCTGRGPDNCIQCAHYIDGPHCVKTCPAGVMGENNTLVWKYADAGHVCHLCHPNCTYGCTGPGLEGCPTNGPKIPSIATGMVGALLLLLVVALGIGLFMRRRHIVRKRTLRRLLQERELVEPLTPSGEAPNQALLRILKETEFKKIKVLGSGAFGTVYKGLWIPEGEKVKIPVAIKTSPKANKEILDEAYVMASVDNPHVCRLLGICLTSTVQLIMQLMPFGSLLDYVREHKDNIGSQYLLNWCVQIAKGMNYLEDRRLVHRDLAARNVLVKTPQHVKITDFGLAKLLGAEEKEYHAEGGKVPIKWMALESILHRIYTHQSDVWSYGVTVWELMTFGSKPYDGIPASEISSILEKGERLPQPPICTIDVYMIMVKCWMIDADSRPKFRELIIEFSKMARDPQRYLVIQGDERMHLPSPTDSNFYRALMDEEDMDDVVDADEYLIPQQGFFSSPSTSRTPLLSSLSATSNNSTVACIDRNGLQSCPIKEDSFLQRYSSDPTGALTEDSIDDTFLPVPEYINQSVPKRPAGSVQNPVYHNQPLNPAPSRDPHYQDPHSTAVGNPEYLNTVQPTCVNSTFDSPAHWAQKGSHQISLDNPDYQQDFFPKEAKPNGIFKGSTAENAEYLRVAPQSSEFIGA

| Degradation H1975 # 28 DTC [1] | Degradation H1975 # 25-LTC [2] | Compound |
| --- | --- | --- |
| 78.5 | 93.3 | Cc1cc2cc(n1)-c1cnn(C)c1OC[C@H]1C[C@@H](CN3/C(=N/C2=O)Nc2ccc(N4CCC(N5C[C@@H]6C[C@H]5CN6c5ccc(C6CCC(=O)NC6=O)nc5C)CC4)cc23)C1 (stereo partly drawn) [Example 47, 3-(5-((1S,4S)-5-(1-((7^1s,7^3R,E)-1^1,2^6-dimethyl-3-oxo-5^2,5^3-dihydro-1′H,5^1H-9-oxa-4-aza-5(2,1)-benzo[d]imidazola-2(2,4)-pyridina-1(4,5)-pyrazola-7(1,3)-cyclobutanacyclononaphane-5^6-yl)piperidin-4-yl)-2,5-diazabicyclo[2.2.1]heptan-2-yl)-6-methylpyridin-2-yl)piperidine-2,6-dione] |
| 87.5 | 89.9 | Cc1cc2cc(n1)-c1cnn(C)c1OC[C@H]1C[C@@H](CN3/C(=N/C2=O)Nc2ccc(N4CCN([C@@H]5CCN(c6ccc(C7CCC(=O)NC7=O)nc6C)C[C@H]5F)CC4)cc23)C1 (stereo partly drawn) [Example 57, 3-(5-((3R,4R)-4-(4-((7^1s,7^3S,E)-1^1,2^6-dimethyl-3-oxo-5^2,5^3-dihydro-1^1H,5^1H-9-oxa-4-aza-5(2,1)-benzo[d]imidazola-2(2,4)-pyridina-1(4,5)-pyrazola-7(1,3)-cyclobutanacyclononaphane-5^6-yl)piperazin-1-yl)-3-fluoropiperidin-1-yl)-6-methylpyridin-2-yl)piperidine-2,6-dione] |
| 89.1 | 91.5 | Cc1cc2cc(n1)-c1cnn(C)c1OC[C@H]1C[C@@H](CN3/C(=N/C2=O)Nc2ccc(N4CCN([C@@H]5CCN(c6ccc(C7CCC(=O)NC7=O)nc6C)C[C@@H]5F)CC4)cc23)C1 (stereo partly drawn) [Example 62, 3-(5-((3S,4R)-4-(4-((7^1s,7^3S,E)-1^1,2^6-dimethyl-3-oxo-5^2,5^3-dihydro-1^1H,5^1H-9-oxa-4-aza-5(2,1)-benzo[d]imidazola-2(2,4)-pyridina-1(4,5)-pyrazola-7(1,3)-cyclobutanacyclononaphane-5^6-yl)piperazin-1-yl)-3-fluoropiperidin-1-yl)-6-methylpyridin-2-yl)piperidine-2,6-dione] |
| 82.1 | 75.9 | Cc1cc2cc(n1)-c1cnn(C)c1OC[C@H]1C[C@@H](CN3/C(=N/C2=O)Nc2ccc(N4CCN([C@@H]5CCN(c6cc(F)c([C@H]7CCC(=O)NC7=O)c(F)c6)C[C@@H]5F)CC4)cc23)C1 [Example 66, (R)-3-(4-((3S,4R)-4-(4-((7^1s,7^3S,E)-1^1,2^6-dimethyl-3-oxo-5^2,5^3-dihydro-1^1H,5^1H-9-oxa-4-aza-5(2,1)-benzo[d]imidazola-2(2,4)-pyridina-1(4,5)-pyrazola-7(1,3)-cyclobutanacyclononaphane-5^6-yl)piperazin-1-yl)-3-fluoropiperidin-1-yl)-2,6-difluorophenyl)piperidine-2,6-dione] |
| 88.7 | 91.8 | Cc1cc2cc(n1)-c1cnn(C)c1OC[C@H]1C[C@@H](CN3/C(=N/C2=O)Nc2ccc(N4CCC(N5CCN(c6cc(F)c([C@H]7CCC(=O)NC7=O)c(F)c6)CC5=O)CC4)cc23)C1 [Example 70, (R)-3-(4-(4-(1-((7^1s,7^3s,E)-1^1,2^6-dimethyl-3-oxo-5^2,5^3-dihydro-1^1H,5^1H-9-oxa-4-aza-5(2,1)-benzo[d]imidazola-2(2,4)-pyridina-1(4,5)-pyrazola-7(1,3)-cyclobutanacyclononaphane-5^6-yl)piperidin-4-yl)-3-oxopiperazin-1-yl)-2,6-difluorophenyl)piperidine-2,6-dione] |
